Test results: US8569302B2, “Inhibitors of flaviviridae viruses” (Gilead Sciences, Inc., priority 2009, dated 2013)

Test system: human hepatoma Huh-7 cell line harboring a HCV replicon
Assay: HCV replicon assay (inhibition of viral replication, luciferase readout)
Type: cell-based
Details: Hepatitis C virus, 72 h, Huh-7 HCV replicon cells, 3 days incubation
Method: The anti-HCV activity of the compounds of this invention was tested in a human hepatoma Huh-7 cell line harboring a HCV replicon. The assay comprised the following steps:
Step 1: Compound Preparation and Serial Dilution.
Serial dilution was performed in 100% DMSO in a 384-well plate. A solution containing a compound at 225-fold concentration of the starting final serial dilution concentration was prepared in 100% DMSO and 15 μL added to the pre-specified wells in column 3 or 13 of a polypropylene 384-well plate. The rest of the 384-well plate was filled with 10 μL 100% DMSO except for columns 23 and 24, where 10 μL of 500 μM a HCV protease inhibitor (ITMN-191) in 100% DMSO was added. The HCV protease inhibitor was used a control of 100% inhibition of HCV replication. The plate was then placed on a Biomek FX Workstation to start the serial dilution. The serial dilution was performed for ten cycles of 3-fold dilution from column 3 to 12 or from column 13 to 22.
Step 2: Cell Culture Plate Preparation and Compound Addition
To each well of a black polypropylene 384-well plate, 90 μL of cell media containing 1600 suspended Huh-7 HCV replicon cells was added with a Biotek uFlow Workstation. A volume of 0.4 μL of the compound solution was transferred from the serial dilution plate to the cell culture plate on a Biomek FX Workstation. The DMSO concentration in the final assay condition was 0.44%. The plates were incubated for 3 days at 37° C. with 5% CO2 and 85% humidity.
Step 3: Detection of Cytotoxicity and Inhibition of Viral Replication
a) Assessment of cytotoxicity: The media in the 384-well cell culture plate was aspirated with a Biotek EL405 plate-washer. A volume of 50 μL of a solution containing 400 nM Calcein AM in 100% PBS was added to each well of the plate with a Biotek uFlow Workstation. The plate was incubated for 30 minutes at room temperature before the fluorescence signal ([…]) was measured with a Perkin Elmer Envision Plate Reader.
b) Assessment of inhibition of viral replication: The calcein-PBS solution in the 384-well cell culture plate was aspirated with a Biotek EL405 plate-washer. A volume of 20 μL of Dual-Glo luciferase buffer (Promega, Dual-Glo Luciferase Assay Reagent, cat. #E298B) was added to each well of the plate with a Biotek uFlow Workstation. The plate was incubated for 10 minutes at room temperature. A volume of 20 μL of a solution containing 1:100 mixture of Dual-Glo Stop & Glo substrate (Promega, Dual-Glo Luciferase Assay Reagent, cat. #E313B) and Dual-Glo Stop & Glo buffer (Promega, Dual-Glo Luciferase Assay Reagent, cat. #E314B) was then added to each well of the plate with a Biotek uFlow Workstation. The plate was incubated at room temperature for 10 minutes before the luminescence signal was measured with a Perkin Elmer Envision Plate Reader.
The percent cytotoxicity was determined by calcein AM conversion to fluorescent product. The average fluorescent signal from the DMSO control wells was defined as 100% nontoxic. The individual fluorescent signal from testing compound treated well was divided by the average signal from DMSO control wells and then multiplied by 100% to get the percent viability. The percent anti-HCV replication activity was determined by the luminescence signal from the testing well compared to DMSO control wells. The background signal was determined by the average luminescence signal from the HCV protease inhibitor treated wells and was subtracted from the signal from the testing wells as well as the DMSO control wells. Following 3-fold serial dilutions, the EC50 and CC50 values were calculated by fitting % inhibition at each concentration to the following equation: % inhibition=100%/[EC50/[I])^b+1]
Where b is Hill's coefficient. See, for reference, Hill, A. V., The Possible Effects of the Aggregation of the Molecules of Hæmoglobin on its Dissociation Curves, J. Physiol. 40: iv-vii. (1910). […]

SMILES | inhibition at 2 µM [%]
C[C@@H](CCOc1cc(CN(C)C)ccn1)N(c1cc(C#CC(C)(C)C)sc1C(=O)O)C(=O)[C@H]1CC[C@H](C)CC1 [Compound 61, 3-[[3-(4-dimethylaminomethyl-pyridin-2-yloxy)-1-(S)-methyl-propyl]-(trans-4-methyl-cyclohexanecarbonyl)-amino]-5-(3,3-dimethyl-but-1-ynyl)-thiophene-2-carboxylic acid] | 99.9
C[C@@H](CCOc1cc(CN2CCCC2)ccn1)N(c1cc(C#CC(C)(C)C)sc1C(=O)O)C(=O)[C@H]1CC[C@H](C)CC1 [Compound 62, 5-(3,3-dimethyl-but-1-ynyl)-3-[(trans-4-methyl-cyclohexanecarbonyl)-[1-(S)-methyl-3-(4-pyrrolidin-1-yl-methyl-pyridin-2-yloxy)-propyl]-amino]-thiophene-2-carboxylic acid] | 100
C[C@@H](CCOc1ccc(O)nn1)N(c1cc(C#CC(C)(C)C)sc1C(=O)O)C(=O)[C@H]1CC[C@H](C)CC1 [Compound 63, 5-(3,3-dimethyl-but-1-ynyl)-3-[[3-(6-hydroxy-pyridazin-3-yloxy)-1-(S)-methyl-propyl]-(trans-4-methyl-cyclohexanecarbonyl)-amino]-thiophene-2-carboxylic acid] | 100
Cn1cnnc1S[C@H]1CC[C@H](N(c2cc(C#CC(C)(C)C)sc2C(=O)O)C(=O)[C@H]2CC[C@H](C)CC2)CC1 [Compound 84, 5-(3,3-dimethylbut-1-ynyl)-3-(4-methyl-N-(4-(4-methyl-4H-1,2,4-triazol-3-ylthio)cyclohexyl)cyclohexanecarboxamido)thiophene-2-carboxylic acid] | 99.9
Cn1cnnc1S[C@H]1CC[C@@H](N(c2cc(C#CC(C)(C)C)sc2C(=O)O)C(=O)[C@H]2CC[C@H](C)CC2)CC1 [Compound 85, 5-(3,3-dimethylbut-1-ynyl)-3-(4-methyl-N-(4-(4-methyl-4H-1,2,4-triazol-3-ylthio)cyclohexyl)cyclohexanecarboxamido)thiophene-2-carboxylic] | 99.6
CC(C)(C)C#Cc1cc(N(C(=O)[C@H]2CC[C@H](C)CC2)[C@H]2CC[C@H](Sc3nncs3)CC2)c(C(=O)O)s1 [Compound 86, 3-(N-(4-(1,3,4-Thiadiazol-2-ylthio)cyclohexyl)-4-methylcyclohexanecarboxamido)-5-(3,3-dimethylbut-1-ynyl)thiophene-2-carboxylic acid] | 100
CC(C)(C)C#Cc1cc(N(C(=O)[C@H]2CC[C@H](C)CC2)[C@H]2CC[C@H](Sc3ccncc3)CC2)c(C(=O)O)s1 [Compound 87, 5-(3,3-Dimethylbut-1-ynyl)-3-(4-methyl-N-(4-(pyridin-4-ylthio)cyclohexyl)cyclohexanecarboxamido)thiophene-2-carboxylic acid] | 99.5
CC(C)(C)C#Cc1cc(N(C(=O)[C@H]2CC[C@H](C)CC2)[C@H]2CC[C@H](Sc3cccc[n+]3[O-])CC2)c(C(=O)O)s1 [Compound 88] | 98.5
CCn1ccnc1S[C@H]1CC[C@H](N(c2cc(C#CC(C)(C)C)sc2C(=O)O)C(=O)[C@H]2CC[C@H](C)CC2)CC1 [Compound 89, 5-(3,3-Dimethylbut-1-ynyl)-3-(N-(4-(1-ethyl-1H-imidazol-2-ylthio)cyclohexyl)-4-methylcyclohexanecarboxamido)thiophene-2-carboxylic acid] | 99.4
CC(C)(C)C#Cc1cc(N(C(=O)[C@H]2CC[C@H](C)CC2)[C@H]2CC[C@H](Sc3nncn3C3CC3)CC2)c(C(=O)O)s1 [Compound 90, 3-(N-(4-(4-Cyclopropyl-4H-1,2,4-triazol-3-ylthio)cyclohexyl)-4-methylcyclohexanecarboxamido)-5-(3,3-dimethylbut-1-ynyl)thiophene-2-carboxylic acid] | 100
CC(C)(C)C#Cc1cc(N(C(=O)[C@H]2CC[C@H](C)CC2)[C@H]2CC[C@H](Sc3ccc4ccccc4n3)CC2)c(C(=O)O)s1 [Compound 91, 5-(3,3-Dimethylbut-1-ynyl)-3-(4-methyl-N-(4-(quinolin-2-ylthio)cyclohexyl)cyclohexanecarboxamido)thiophene-2-carboxylic acid] | 99.8
CC(C)(C)C#Cc1cc(N(C(=O)[C@H]2CC[C@H](C)CC2)[C@H]2CC[C@H](Sc3nnc4ccccn34)CC2)c(C(=O)O)s1 [Compound 92, 3-(N-(4-([1,2,4]-Triazolo[4,3-a]pyridin-3-ylthio)cyclohexyl)-4-methylcyclohexanecarboxamido)-5-(3,3-dimethylbut-1-ynyl)thiophene-2-carboxylic acid] | 100
CC(C)(C)C#Cc1cc(N(C(=O)[C@H]2CC[C@H](C)CC2)[C@H]2CC[C@H](Sc3cccs3)CC2)c(C(=O)O)s1 [Compound 93, 5-(3,3-Dimethylbut-1-ynyl)-3-(4-methyl-N-(4-(thiophen-2-ylthio)cyclohexyl)cyclohexanecarboxamido)thiophene-2-carboxylic acid] | 98.1
CC(C)(C)C#Cc1cc(N(C(=O)[C@H]2CC[C@H](C)CC2)[C@H]2CC[C@H](Sc3ncc[nH]3)CC2)c(C(=O)O)s1 [Compound 94, 3-(N-(4-(1H-Imidazol-2-ylthio)cyclohexyl)-4-methylcyclohexanecarboxamido)-5-(3,3-dimethylbut-1-ynyl)thiophene-2-carboxylic acid] | 99.9
CC(C)(C)C#Cc1cc(N(C(=O)[C@H]2CC[C@H](C)CC2)[C@H]2CC[C@H](Sc3nc(N)n[nH]3)CC2)c(C(=O)O)s1 [Compound 95, 3-(N-(4-(5-Amino-2H-1,2,4-triazol-3-ylthio)cyclohexyl)-4-methylcyclohexanecarboxamido)-5-(3,3-dimethylbut-1-ynyl)thiophene-2-carboxylic acid] | 99.9
CC(C)(C)C#Cc1cc(N(C(=O)[C@H]2CC[C@H](C)CC2)[C@H]2CC[C@H](Sc3nc[nH]n3)CC2)c(C(=O)O)s1 [Compound 97, 3-(N-(4-(1H-1,2,4-Triazol-3-ylthio)cyclohexyl)-4-methylcyclohexanecarboxamido)-5-(3,3-dimethylbut-1-ynyl)thiophene-2-carboxylic acid] | 99.9
Cc1nnc(S[C@H]2CC[C@H](N(c3cc(C#CC(C)(C)C)sc3C(=O)O)C(=O)[C@H]3CC[C@H](C)CC3)CC2)o1 [Compound 98, 5-(3,3-Dimethylbut-1-ynyl)-3-(4-methyl-N-(4-(5-methyl-1,3,4-oxadiazol-2-ylthio)cyclohexyl)cyclohexanecarboxamido)thiophene-2-carboxylic acid] | 100
CC(C)(C)C#Cc1cc(N(C(=O)[C@H]2CC[C@H](C)CC2)[C@H]2CC[C@H](Sc3ccccn3)CC2)c(C(=O)O)s1 [Compound 99, 5-(3,3-Dimethylbut-1-ynyl)-3-(4-methyl-N-(4-(pyridin-2-ylthio)cyclohexyl)cyclohexanecarboxamido)thiophene-2-carboxylic acid] | 97.7
CC(C)(C)C#Cc1cc(N(C(=O)[C@H]2CC[C@H](C)CC2)[C@H]2CC[C@H](Sc3ncccn3)CC2)c(C(=O)O)s1 [Compound 100, 5-(3,3-Dimethylbut-1-ynyl)-3-(4-methyl-N-(4-(pyrimidin-2-ylthio)cyclohexyl)cyclohexanecarboxamido)thiophene-2-carboxylic acid] | 99.9
Cn1nnnc1S[C@H]1CC[C@H](N(c2cc(C#CC(C)(C)C)sc2C(=O)O)C(=O)[C@H]2CC[C@H](C)CC2)CC1 [Compound 101, 5-(3,3-Dimethylbut-1-ynyl)-3-(4-methyl-N-(4-(1-methyl-1H-tetrazol-5-ylthio)cyclohexyl)cyclohexanecarboxamido)thiophene-2-carboxylic acid] | 100
